The values below come from article PMC2929754 (The Journal of parasitology, 2009).

The structures appear in SMILES notation.

This assay addresses T. cruzi lipoamide dehydrogenase (TcLipDH) (Trypanosoma cruzi, UniProt P90597). The assay can be described thus: Recombinant enzyme kinetics. Format: biochemical.

Chain of T. cruzi lipoamide dehydrogenase (TcLipDH) (P90597 whole entry): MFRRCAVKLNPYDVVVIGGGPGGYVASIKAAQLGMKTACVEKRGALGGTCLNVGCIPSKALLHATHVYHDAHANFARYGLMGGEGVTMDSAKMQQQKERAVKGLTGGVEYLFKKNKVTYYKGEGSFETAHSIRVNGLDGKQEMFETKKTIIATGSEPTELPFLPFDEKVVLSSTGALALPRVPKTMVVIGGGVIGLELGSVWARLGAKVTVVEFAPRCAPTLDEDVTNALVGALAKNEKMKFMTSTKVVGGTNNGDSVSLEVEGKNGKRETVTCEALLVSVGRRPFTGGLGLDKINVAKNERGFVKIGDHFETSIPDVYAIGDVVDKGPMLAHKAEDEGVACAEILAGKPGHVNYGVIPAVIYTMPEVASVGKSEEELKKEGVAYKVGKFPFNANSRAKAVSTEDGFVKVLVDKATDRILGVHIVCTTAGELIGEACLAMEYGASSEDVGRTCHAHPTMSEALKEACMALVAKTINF

A word on the Ki: it is the dissociation constant of the complex between target and ligand, obtained from inhibition or displacement. Take `O=C1C(c2ccccc2)=C(c2ccccc2)C(=O)c2ccccc21` [DPNQ, 2,3-diphenyl-1,4-naphthoquinone]: the Ki is 29 µM.
